One compound from patent US8557833B2, “Aminopyrimidines useful as kinase inhibitors” (priority 2005, dated 2013) can be followed below.

One may read the Ki as a dissociation constant, usually derived from enzyme kinetics or from competition with a known ligand.

Common to all, as to assay type: biochemical
What all share (conditions): ATP at or close to Km

For one experiment, the target named is Arg (Abl-2) (Homo sapiens, UniProt P42684). As to the kind of experiment: Arg (Abl-2) inhibition assay. An excerpt:
(§1) Compound I-1 was screened for its ability to inhibit Arg (Abl-2), FGFR1, MELK, MLK1, MuSK, Ret, and TrkA using screening methods known to one of ordinary skill in the art. All of the above enzymes were screened with ATP concentrations at or close to the Km for ATP.

The next experiment has as its target FGFR1 (Homo sapiens, UniProt P11362). The experiment is described as follows: FGFR1 inhibition assay.
Source text: as §1

A further experiment addresses MELK (Homo sapiens, UniProt Q14680). The experiment is described as follows: MELK inhibition assay.
Source text: as §1

A further experiment deals with MLK1 (Homo sapiens, UniProt P80192). As to the kind of experiment: MLK1 inhibition assay.
MLK1, sequence (P80192 whole entry, species assumed): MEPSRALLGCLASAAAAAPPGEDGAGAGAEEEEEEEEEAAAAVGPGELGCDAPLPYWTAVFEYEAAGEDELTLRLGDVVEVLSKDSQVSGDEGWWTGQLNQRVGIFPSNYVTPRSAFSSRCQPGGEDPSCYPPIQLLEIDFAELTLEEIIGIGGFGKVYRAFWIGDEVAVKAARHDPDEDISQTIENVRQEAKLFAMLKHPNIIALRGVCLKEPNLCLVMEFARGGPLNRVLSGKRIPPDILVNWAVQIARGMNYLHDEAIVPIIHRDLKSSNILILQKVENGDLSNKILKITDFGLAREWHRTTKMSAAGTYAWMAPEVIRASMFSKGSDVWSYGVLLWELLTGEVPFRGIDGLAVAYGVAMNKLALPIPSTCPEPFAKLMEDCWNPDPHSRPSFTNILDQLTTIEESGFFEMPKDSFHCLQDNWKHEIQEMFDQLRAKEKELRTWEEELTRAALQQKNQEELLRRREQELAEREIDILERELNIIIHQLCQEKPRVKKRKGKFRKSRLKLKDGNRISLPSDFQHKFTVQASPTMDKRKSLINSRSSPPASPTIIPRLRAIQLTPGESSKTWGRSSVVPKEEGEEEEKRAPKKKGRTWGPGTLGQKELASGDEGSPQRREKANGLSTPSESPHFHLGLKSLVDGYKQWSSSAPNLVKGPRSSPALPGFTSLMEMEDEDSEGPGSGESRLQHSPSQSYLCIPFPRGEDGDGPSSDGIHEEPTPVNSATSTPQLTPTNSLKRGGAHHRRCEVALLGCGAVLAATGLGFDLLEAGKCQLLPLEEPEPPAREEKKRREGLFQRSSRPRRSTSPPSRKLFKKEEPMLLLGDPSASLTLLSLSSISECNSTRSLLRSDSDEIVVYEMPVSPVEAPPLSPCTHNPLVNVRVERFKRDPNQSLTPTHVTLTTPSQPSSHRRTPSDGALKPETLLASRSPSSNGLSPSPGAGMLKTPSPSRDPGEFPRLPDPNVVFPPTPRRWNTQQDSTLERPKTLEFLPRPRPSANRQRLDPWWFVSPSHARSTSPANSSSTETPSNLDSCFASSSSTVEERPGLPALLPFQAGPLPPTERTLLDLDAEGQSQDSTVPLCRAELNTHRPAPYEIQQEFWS
Source text: as §1

The target in another experiment is T1, MuSK (Homo sapiens, UniProt O15146).
T1 sequence (O15146 24-869): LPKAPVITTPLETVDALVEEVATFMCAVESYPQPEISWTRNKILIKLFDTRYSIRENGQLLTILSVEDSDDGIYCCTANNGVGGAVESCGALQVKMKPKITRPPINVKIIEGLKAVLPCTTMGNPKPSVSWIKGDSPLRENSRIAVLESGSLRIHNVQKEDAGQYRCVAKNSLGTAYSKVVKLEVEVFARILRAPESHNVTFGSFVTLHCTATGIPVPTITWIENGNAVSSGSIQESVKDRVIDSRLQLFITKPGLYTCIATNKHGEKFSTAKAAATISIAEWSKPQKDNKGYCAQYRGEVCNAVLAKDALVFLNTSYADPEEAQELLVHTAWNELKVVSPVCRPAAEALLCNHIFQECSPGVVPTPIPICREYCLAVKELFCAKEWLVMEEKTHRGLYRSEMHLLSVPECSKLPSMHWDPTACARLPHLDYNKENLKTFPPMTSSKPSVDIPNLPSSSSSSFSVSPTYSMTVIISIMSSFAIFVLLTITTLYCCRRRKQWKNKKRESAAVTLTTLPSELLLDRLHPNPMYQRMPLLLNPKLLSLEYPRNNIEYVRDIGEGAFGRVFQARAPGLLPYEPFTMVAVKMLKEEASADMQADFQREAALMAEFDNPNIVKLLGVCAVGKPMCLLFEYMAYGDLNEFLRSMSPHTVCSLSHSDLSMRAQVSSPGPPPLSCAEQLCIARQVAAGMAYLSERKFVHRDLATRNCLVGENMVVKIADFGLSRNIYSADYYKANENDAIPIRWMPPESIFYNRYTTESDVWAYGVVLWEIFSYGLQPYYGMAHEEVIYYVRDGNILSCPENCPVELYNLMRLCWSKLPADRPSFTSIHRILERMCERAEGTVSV
The experiment is described as follows: MuSK inhibition assay.
Source text: as §1

The next experiment deals with Ret (Homo sapiens, UniProt P07949). The experiment is described as follows: Ret inhibition assay.
Source text: as §1

For another experiment, the target named is TrkA (Homo sapiens, UniProt P04629). As to the kind of experiment: TrkA inhibition assay.
TrkA, sequence (P04629 33-796, species assumed): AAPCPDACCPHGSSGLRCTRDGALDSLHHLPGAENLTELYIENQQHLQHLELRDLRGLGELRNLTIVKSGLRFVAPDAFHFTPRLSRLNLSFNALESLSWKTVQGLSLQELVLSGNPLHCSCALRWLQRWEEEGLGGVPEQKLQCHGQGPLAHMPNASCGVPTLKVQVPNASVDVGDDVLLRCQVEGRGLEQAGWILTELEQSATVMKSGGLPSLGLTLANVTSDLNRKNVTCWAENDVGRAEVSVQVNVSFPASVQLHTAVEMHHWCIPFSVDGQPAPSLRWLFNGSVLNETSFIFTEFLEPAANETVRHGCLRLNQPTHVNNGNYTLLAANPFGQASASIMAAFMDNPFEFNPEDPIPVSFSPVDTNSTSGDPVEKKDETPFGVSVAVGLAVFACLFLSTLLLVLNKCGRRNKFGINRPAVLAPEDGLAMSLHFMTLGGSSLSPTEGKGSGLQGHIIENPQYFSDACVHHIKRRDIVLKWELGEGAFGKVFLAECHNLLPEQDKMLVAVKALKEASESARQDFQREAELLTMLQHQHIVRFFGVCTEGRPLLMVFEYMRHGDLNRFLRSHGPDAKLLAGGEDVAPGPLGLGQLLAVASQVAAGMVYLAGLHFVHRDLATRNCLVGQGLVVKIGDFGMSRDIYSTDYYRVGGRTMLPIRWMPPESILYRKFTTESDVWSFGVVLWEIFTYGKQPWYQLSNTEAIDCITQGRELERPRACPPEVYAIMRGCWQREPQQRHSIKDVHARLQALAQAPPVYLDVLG
Source text: as §1

Arg (Abl-2), sequence (P42684 whole entry, species assumed): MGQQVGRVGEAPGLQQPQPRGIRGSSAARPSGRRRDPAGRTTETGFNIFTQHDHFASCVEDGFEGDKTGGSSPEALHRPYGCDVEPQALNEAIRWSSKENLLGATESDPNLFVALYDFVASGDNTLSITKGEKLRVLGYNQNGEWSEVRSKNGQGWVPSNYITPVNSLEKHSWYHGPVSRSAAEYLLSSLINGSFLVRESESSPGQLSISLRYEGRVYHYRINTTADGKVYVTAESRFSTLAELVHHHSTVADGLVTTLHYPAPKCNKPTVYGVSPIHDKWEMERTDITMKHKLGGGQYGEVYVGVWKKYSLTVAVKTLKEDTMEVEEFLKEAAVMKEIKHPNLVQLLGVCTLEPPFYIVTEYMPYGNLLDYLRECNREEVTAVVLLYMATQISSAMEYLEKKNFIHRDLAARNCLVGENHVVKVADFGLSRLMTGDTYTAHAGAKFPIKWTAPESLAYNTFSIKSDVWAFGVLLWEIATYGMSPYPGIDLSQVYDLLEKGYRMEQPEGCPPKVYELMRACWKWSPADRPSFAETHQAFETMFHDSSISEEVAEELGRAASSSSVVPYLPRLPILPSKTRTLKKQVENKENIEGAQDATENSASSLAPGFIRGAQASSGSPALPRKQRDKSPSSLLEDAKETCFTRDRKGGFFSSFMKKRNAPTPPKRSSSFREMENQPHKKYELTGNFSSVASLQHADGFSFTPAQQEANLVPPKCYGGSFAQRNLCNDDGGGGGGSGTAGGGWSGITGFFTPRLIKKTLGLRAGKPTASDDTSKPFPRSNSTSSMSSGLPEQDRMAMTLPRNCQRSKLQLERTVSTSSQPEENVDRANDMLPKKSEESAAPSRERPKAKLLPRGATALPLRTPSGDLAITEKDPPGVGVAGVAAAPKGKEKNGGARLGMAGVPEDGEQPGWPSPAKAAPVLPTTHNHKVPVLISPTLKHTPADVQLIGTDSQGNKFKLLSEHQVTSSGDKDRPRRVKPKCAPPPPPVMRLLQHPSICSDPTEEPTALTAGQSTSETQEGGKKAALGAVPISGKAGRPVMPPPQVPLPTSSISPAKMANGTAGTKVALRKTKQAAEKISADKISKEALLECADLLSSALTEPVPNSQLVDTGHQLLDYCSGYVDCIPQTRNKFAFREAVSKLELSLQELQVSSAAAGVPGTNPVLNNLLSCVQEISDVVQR
FGFR1, sequence (P11362 22-822, species assumed): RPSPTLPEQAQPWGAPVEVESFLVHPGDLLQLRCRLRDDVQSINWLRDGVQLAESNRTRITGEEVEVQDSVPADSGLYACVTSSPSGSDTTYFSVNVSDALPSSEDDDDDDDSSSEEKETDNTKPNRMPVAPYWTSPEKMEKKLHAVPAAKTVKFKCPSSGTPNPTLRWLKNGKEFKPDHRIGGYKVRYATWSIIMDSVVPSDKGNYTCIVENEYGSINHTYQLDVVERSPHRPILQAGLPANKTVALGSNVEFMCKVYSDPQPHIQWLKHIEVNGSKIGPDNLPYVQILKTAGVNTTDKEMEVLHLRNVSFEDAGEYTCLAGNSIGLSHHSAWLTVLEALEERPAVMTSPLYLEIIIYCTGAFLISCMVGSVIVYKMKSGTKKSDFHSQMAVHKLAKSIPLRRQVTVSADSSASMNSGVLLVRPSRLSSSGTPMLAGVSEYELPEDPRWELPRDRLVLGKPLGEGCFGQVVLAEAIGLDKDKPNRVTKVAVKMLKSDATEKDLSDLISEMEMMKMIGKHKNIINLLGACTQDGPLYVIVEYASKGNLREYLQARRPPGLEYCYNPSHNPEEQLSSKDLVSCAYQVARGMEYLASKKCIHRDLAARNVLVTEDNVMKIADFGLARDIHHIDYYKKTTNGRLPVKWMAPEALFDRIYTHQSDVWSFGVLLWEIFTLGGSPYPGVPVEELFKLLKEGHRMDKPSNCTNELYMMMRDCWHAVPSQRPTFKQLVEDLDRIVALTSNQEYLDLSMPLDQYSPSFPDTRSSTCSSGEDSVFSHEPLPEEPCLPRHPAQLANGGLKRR
MELK, sequence (Q14680 whole entry, species assumed): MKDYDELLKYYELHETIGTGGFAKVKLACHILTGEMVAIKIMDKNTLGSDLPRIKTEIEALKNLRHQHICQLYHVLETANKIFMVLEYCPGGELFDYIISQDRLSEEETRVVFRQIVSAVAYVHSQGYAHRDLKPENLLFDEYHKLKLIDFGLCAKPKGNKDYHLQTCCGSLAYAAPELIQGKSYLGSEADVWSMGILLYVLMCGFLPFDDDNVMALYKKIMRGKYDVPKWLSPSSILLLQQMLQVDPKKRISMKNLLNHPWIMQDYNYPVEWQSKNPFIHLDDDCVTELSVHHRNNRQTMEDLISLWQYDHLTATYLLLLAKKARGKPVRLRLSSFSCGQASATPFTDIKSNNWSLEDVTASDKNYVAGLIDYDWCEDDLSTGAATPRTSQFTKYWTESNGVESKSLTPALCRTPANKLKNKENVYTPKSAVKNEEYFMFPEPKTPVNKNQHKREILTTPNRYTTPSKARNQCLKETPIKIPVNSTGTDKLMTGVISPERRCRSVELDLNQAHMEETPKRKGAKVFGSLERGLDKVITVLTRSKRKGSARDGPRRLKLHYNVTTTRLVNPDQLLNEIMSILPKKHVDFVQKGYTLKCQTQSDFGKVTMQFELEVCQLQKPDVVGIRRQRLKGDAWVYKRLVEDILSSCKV

For the compound `Cc1cc(Nc2cc(N3CCC3)nc(Sc3ccc(NC(=O)c4ccccc4Cl)cc3)n2)[nH]n1` [Compound I-1, N-{4-[4-Azetidin-1-yl-6-(5-methyl-2H-pyrazol-3-ylamino)-pyrimidin-2-ylsulfanyl]-phenyl}-2-chloro-benzamide], the Ki was 12 nM at Arg (Abl-2); 5 nM on FGFR1; 17 nM at MELK; < 18 nM on MLK1; 70 nM at MuSK; 8 nM at Ret. The inhibitory constant (Ki) at TrkA is < 6 nM.
